The text below walks through data of patent publication US20020022619A1, “Tricyclic fused pyridine and pyrimidine derivatives as CRF antagonists” (priority 2000, published 2002).

The test system of data set [1] is “anxiogenic” effects of CRF. As to conditions: cited from earlier work; for effect on the “anxiogenic” effects / actions of CRF in the conflict test: rats, given with CRF.

Compound `CCN1CCCn2c(=O)n(-c3ccc(C(C)C)cc3Br)c3nc(C)nc1c32` [Example 1, 2-(2-Bromo-4-isopropyl-phenyl)-6-ethyl-4-methyl-6,7,8,9-tetrahydro-2H-2,3,5,6,9a-pentaaza-benzo[cd]azulen-1-one] registered a melting point of 144.5 to 146 °C. As for `CNC(=O)c1cc2c(cn1)[nH]c1ccccc12` [FG7142], the “effect on the “anxiogenic” effects / actions of CRF in the conflict test” value in data set [1] was “enhanced the actions of CRF”. In the case of `CCOC(=O)c1ncn2c1CN(C)C(=O)c1cc(F)ccc1-2` [Ro15-1788], the “behavioral activity alone in the operant conflict test” value in data set [1] (compound alone, without CRF) is “without behavioral activity alone”. Also, the “effect on the “anxiogenic” effects / actions of CRF in the conflict test” value in data set [1] is “reversed the effects of CRF in a dose-dependent manner”.
